Measurements as given in publication PMC5218480 (PLoS ONE, 2017).

System: MV-4-11 cells
Experiment: Gene expression microarray analysis (Affymetrix PrimeView) and GSEA
Assay type: cell-based, human
Design: RFU PODN (11730768_x_at) / Fold change /veh PODN (11730768_x_at) / RFU LINC00158 (11744669_a_at) / Fold change /veh LINC00158 (11744669_a_at) / RFU DUSP10 (11751237_a_at) / Fold change /veh DUSP10 (11751237_a_at) / RFU ID3 (11757404_x_at) / Fold change /veh ID3 (11757404_x_at) / RFU PLEKHG5 (11737974_s_at) / Fold change /veh PLEKHG5 (11737974_s_at) / RFU LRRC4B (11730491_at) / Fold change /veh LRRC4B (11730491_at) / RFU GIMAP4 (11747438_a_at) / Fold change /veh GIMAP4 (11747438_a_at) / RFU KRT8 (11758183_x_at) / Fold change /veh KRT8 (11758183_x_at) / RFU CNN1 (11734310_a_at) / Fold change /veh CNN1 (11734310_a_at) / RFU VPS37D (11726825_at) / Fold change /veh VPS37D (11726825_at) / RFU C10orf10 (11716522_x_at) / Fold change /veh C10orf10 (11716522_x_at) / RFU KIR2DL2 /// KIR2DL4 /// KIR2DL5A /// KIR2DL5B /// KIR2DS1 /// KIR2DS2 /// KIR2DS3 /// KIR2DS4 /// KIR3DL3 /// KIR3DL3 /// KIR3DS1 (11738374_at) / Fold change /veh KIR2DL2 /// KIR2DL4 /// KIR2DL5A /// KIR2DL5B /// KIR2DS1 /// KIR2DS2 /// KIR2DS3 /// KIR2DS4 /// KIR3DL3 /// KIR3DL3 /// KIR3DS1 (11738374_at) / RFU C1QL1 (11718748_at) / Fold change /veh C1QL1 (11718748_at) / RFU TMPRSS4 (11747572_a_at) / Fold change /veh TMPRSS4 (11747572_a_at) / RFU HAMP (11756126_x_at) / Fold change /veh HAMP (11756126_x_at) / RFU RNFT2 (11725882_a_at) / Fold change /veh RNFT2 (11725882_a_at) / RFU NR4A2 (11747474_a_at) / Fold change /veh NR4A2 (11747474_a_at) / RFU ABCC12 (11746883_a_at) / Fold change /veh ABCC12 (11746883_a_at) / RFU TMEM136 (11760407_x_at) / Fold change /veh TMEM136 (11760407_x_at) / RFU CLDN22 /// WWC2 (11732394_at) / Fold change /veh CLDN22 /// WWC2 (11732394_at) / RFU HLA-DPB1 (11760878_x_at) / Fold change /veh HLA-DPB1 (11760878_x_at) / RFU SPINT1 (11716480_a_at) / Fold change /veh SPINT1 (11716480_a_at) / RFU GAP43 (11754022_s_at) / Fold change /veh GAP43 (11754022_s_at) / RFU A4GNT (11735810_at) / Fold change /veh A4GNT (11735810_at) / RFU PRB3 (11715151_x_at) / Fold change /veh PRB3 (11715151_x_at) / RFU TUBB4B (11761932_at) / Fold change /veh TUBB4B (11761932_at) / RFU CAPN14 (11732068_a_at) / Fold change /veh CAPN14 (11732068_a_at) / RFU TMCC2 (11721928_a_at) / Fold change /veh TMCC2 (11721928_a_at) / RFU IRGQ (11745062_a_at) / Fold change /veh IRGQ (11745062_a_at) / RFU FAM174B (11720279_a_at) / Fold change /veh FAM174B (11720279_a_at) / RFU TMPRSS4 (11748680_a_at) / Fold change /veh TMPRSS4 (11748680_a_at) / RFU FAM212B (11763350_a_at) / Fold change /veh FAM212B (11763350_a_at) / RFU PLEKHG5 (11743358_a_at) / Fold change /veh PLEKHG5 (11743358_a_at) / RFU ZSCAN30 (11745921_a_at) / Fold change /veh ZSCAN30 (11745921_a_at) / RFU CMKLR1 (11741424_a_at) / Fold change /veh CMKLR1 (11741424_a_at) / RFU LOC101060620 /// MAPK8IP1 (11723275_at) / Fold change /veh LOC101060620 /// MAPK8IP1 (11723275_at) / RFU SPTSSB (11747773_x_at) / Fold change /veh SPTSSB (11747773_x_at) / RFU PRSS12 (11739890_at) / Fold change /veh PRSS12 (11739890_at) / RFU BIN1 (11741810_x_at) / Fold change /veh BIN1 (11741810_x_at) / RFU WNT11 (11732464_a_at) / Fold change /veh WNT11 (11732464_a_at) / RFU C10orf10 (11716521_a_at) / Fold change /veh C10orf10 (11716521_a_at) / RFU C5orf56 (11738089_at) / Fold change /veh C5orf56 (11738089_at) / RFU CYB561 (11721691_x_at) / Fold change /veh CYB561 (11721691_x_at) / RFU ANKRD19P (11752326_a_at) / Fold change /veh ANKRD19P (11752326_a_at) / RFU OR2T12 /// OR2T33 /// OR2T8 (11738714_s_at) / Fold change /veh OR2T12 /// OR2T33 /// OR2T8 (11738714_s_at) / RFU VCAN (11748164_a_at) / Fold change /veh VCAN (11748164_a_at) / RFU JSRP1 (11732532_at) / Fold change /veh JSRP1 (11732532_at) / RFU KRTAP10-11 (11738290_x_at) / Fold change /veh KRTAP10-11 (11738290_x_at) / RFU MYO3A (11730013_a_at) / Fold change /veh MYO3A (11730013_a_at) / RFU EBF3 (11725865_a_at) / Fold change /veh EBF3 (11725865_a_at) / RFU CAMK2N1 (11719241_x_at) / Fold change /veh CAMK2N1 (11719241_x_at) / RFU C5orf56 (11738088_a_at) / Fold change /veh C5orf56 (11738088_a_at) / RFU OLFML3 (11715873_a_at) / Fold change /veh OLFML3 (11715873_a_at) / RFU LOC100653217 /// NTM (11731650_a_at) / Fold change /veh LOC100653217 /// NTM (11731650_a_at) / RFU MAPK11 (11762145_a_at) / Fold change /veh MAPK11 (11762145_a_at) / RFU FIZ1 (11724087_x_at) / Fold change /veh FIZ1 (11724087_x_at) / RFU OASL (11726364_x_at) / Fold change /veh OASL (11726364_x_at) / RFU SOX15 (11748057_x_at) / Fold change /veh SOX15 (11748057_x_at) / RFU CD79A (11719716_a_at) / Fold change /veh CD79A (11719716_a_at) / RFU HIST1H1D (11736915_at) / Fold change /veh HIST1H1D (11736915_at) / RFU CASKIN2 (11723855_a_at) / Fold change /veh CASKIN2 (11723855_a_at) / RFU LOC730098 (11760151_x_at) / Fold change /veh LOC730098 (11760151_x_at) / RFU OR4N2 (11742367_at) / Fold change /veh OR4N2 (11742367_at) / RFU PRRT2 (11749266_a_at) / Fold change /veh PRRT2 (11749266_a_at) / RFU SNX32 (11753110_a_at) / Fold change /veh SNX32 (11753110_a_at) / RFU CDHR5 (11726645_a_at) / Fold change /veh CDHR5 (11726645_a_at) / RFU RCAN1 (11760418_a_at) / Fold change /veh RCAN1 (11760418_a_at) / RFU FAM167A (11723789_a_at) / Fold change /veh FAM167A (11723789_a_at) / RFU FAM26E (11764081_at) / Fold change /veh FAM26E (11764081_at) / RFU ISYNA1 (11749810_s_at) / Fold change /veh ISYNA1 (11749810_s_at) / RFU ACY1 (11761880_at) / Fold change /veh ACY1 (11761880_at) / RFU 11764098_at / Fold change /veh 11764098_at / RFU SAMD14 (11745864_x_at) / Fold change /veh SAMD14 (11745864_x_at) / RFU NPB (11741838_a_at) / Fold change /veh NPB (11741838_a_at) / RFU TMPRSS6 (11731388_a_at) / Fold change /veh TMPRSS6 (11731388_a_at) / RFU KRTAP10-2 (11738614_at) / Fold change /veh KRTAP10-2 (11738614_at) / RFU ARHGAP8 /// PRR5-ARHGAP8 (11727945_x_at) / Fold change /veh ARHGAP8 /// PRR5-ARHGAP8 (11727945_x_at) / RFU KRTAP5-7 /// NADSYN1 (11734609_at) / Fold change /veh KRTAP5-7 /// NADSYN1 (11734609_at) / RFU RASL12 (11751679_a_at) / Fold change /veh RASL12 (11751679_a_at) / RFU CDKN2B (11736163_a_at) / Fold change /veh CDKN2B (11736163_a_at) / RFU PRF1 (11729649_at) / Fold change /veh PRF1 (11729649_at) / RFU, ZNF638 /// ZNF638-IT1 / Fold change vs veh, ZNF638 /// ZNF638-IT1 / RFU, PANK3 / Fold change vs veh, PANK3 / RFU, SH3YL1 / Fold change vs veh, SH3YL1 / RFU, ZEB2 / Fold change vs veh, ZEB2 / RFU, NRIP1 / Fold change vs veh, NRIP1 / RFU, PTTG1IP / Fold change vs veh, PTTG1IP / RFU, CAPN2 / Fold change vs veh, CAPN2 / RFU, MED14 / Fold change vs veh, MED14 / RFU, SNORA58 / Fold change vs veh, SNORA58 / RFU, C1orf63 / Fold change vs veh, C1orf63 / RFU, LRRFIP1 / Fold change vs veh, LRRFIP1 / RFU, NDUFAF7 / Fold change vs veh, NDUFAF7 / RFU, SLC12A2 / Fold change vs veh, SLC12A2 / RFU, IBTK / Fold change vs veh, IBTK / RFU, ESF1 / Fold change vs veh, ESF1 / Fold change vs veh, TMEM50B / RFU, TAOK1 / Fold change vs veh, TAOK1 / RFU, ACBD3 / Fold change vs veh, ACBD3 / RFU, TMA16 / Fold change vs veh, TMA16 / RFU, RWDD3 / Fold change vs veh, RWDD3 / RFU, BCAT1 / Fold change vs veh, BCAT1 / RFU, EDEM3 / Fold change vs veh, EDEM3 / RFU, TMEM33 / Fold change vs veh, TMEM33 / RFU, WDR75 / Fold change vs veh, WDR75 / RFU, AHCTF1 / Fold change vs veh, AHCTF1 / RFU, TFRC / Fold change vs veh, TFRC / RFU, ZDHHC17 / Fold change vs veh, ZDHHC17 / RFU, NOM1 / Fold change vs veh, NOM1 / RFU, ARL8B / Fold change vs veh, ARL8B / RFU, ZBTB11 / Fold change vs veh, ZBTB11 / RFU, TAMM41 / Fold change vs veh, TAMM41 / RFU, KIAA1704 /// LOC100996395 / Fold change vs veh, KIAA1704 /// LOC100996395 / RFU, ING1 / Fold change vs veh, ING1 / RFU, TRMT61B / Fold change vs veh, TRMT61B / RFU, FUBP3 / Fold change vs veh, FUBP3 / RFU, TP53 / Fold change vs veh, TP53 / RFU, TNKS2 / Fold change vs veh, TNKS2 / RFU, ZFP14 / Fold change vs veh, ZFP14 / RFU, ACTR2 / Fold change vs veh, ACTR2 / RFU, PPP3R1 / Fold change vs veh, PPP3R1 / RFU, PIK3R1 / Fold change vs veh, PIK3R1 / RFU, HNRNPA1 / Fold change vs veh, HNRNPA1 / RFU, RNF170 / Fold change vs veh, RNF170 / RFU, ZNF28 / Fold change vs veh, ZNF28 / RFU, RNGTT / Fold change vs veh, RNGTT / RFU, OGT / Fold change vs veh, OGT / RFU, BRD1 / Fold change vs veh, BRD1 / RFU, MARS / Fold change vs veh, MARS / RFU, ZNF655 / Fold change vs veh, ZNF655 / RFU, FAHD1 / Fold change vs veh, FAHD1 / RFU, BDP1 / Fold change vs veh, BDP1 / RFU, LRRCC1 / Fold change vs veh, LRRCC1 / RFU, ARID1A / Fold change vs veh, ARID1A / RFU, ZNF146 / Fold change vs veh, ZNF146 / RFU, ZNF330 / Fold change vs veh, ZNF330 / RFU, GPN3 / Fold change vs veh, GPN3 / RFU, C9orf123 / Fold change vs veh, C9orf123 / RFU, N4BP2L2 / Fold change vs veh, N4BP2L2 / RFU, ARFIP1 / Fold change vs veh, ARFIP1 / RFU, FAM179B / Fold change vs veh, FAM179B / RFU, BCL10 / Fold change vs veh, BCL10 / RFU, UHRF1BP1L / Fold change vs veh, UHRF1BP1L / RFU, BET1 / Fold change vs veh, BET1 / RFU, CNOT2 / Fold change vs veh, CNOT2 / RFU, ZNF268 / Fold change vs veh, ZNF268 / Fold change vs veh, ZNF507 / RFU, DGCR2 / Fold change vs veh, DGCR2 / RFU, WDSUB1 / Fold change vs veh, WDSUB1 / Fold change vs veh, HSP90B1 /// MIR3652 / RFU, ADSS / Fold change vs veh, ADSS / RFU, GK / Fold change vs veh, GK / RFU, ZNF148 / Fold change vs veh, ZNF148 / RFU, TAF9 / Fold change vs veh, TAF9 / RFU, SLC1A5 / Fold change vs veh, SLC1A5 / RFU, SLMO2 / Fold change vs veh, SLMO2 / RFU, ABCC4 / Fold change vs veh, ABCC4 / RFU, LOC101060439 /// RAP1B / Fold change vs veh, LOC101060439 /// RAP1B / RFU, RFX7 / Fold change vs veh, RFX7 / RFU, GTPBP10 / Fold change vs veh, GTPBP10 / RFU, CNEP1R1 / Fold change vs veh, CNEP1R1 / RFU, BIVM-ERCC5 /// ERCC5 / Fold change vs veh, BIVM-ERCC5 /// ERCC5 / RFU, ILF3 / Fold change vs veh, ILF3 / RFU 11762660_at / Fold change /veh 11762660_at / RFU VCAN (11757783_s_at) / Fold change /veh VCAN (11757783_s_at) / RFU DDX43 (11728927_at) / Fold change /veh DDX43 (11728927_at) / RFU KRT8 (11758188_x_at) / Fold change /veh KRT8 (11758188_x_at) / RFU NKD1 (11759106_at) / Fold change /veh NKD1 (11759106_at) / RFU SRD5A1 (11742802_a_at) / Fold change /veh SRD5A1 (11742802_a_at) / RFU TPSAB1 /// TPSB2 (11721975_s_at) / Fold change /veh TPSAB1 /// TPSB2 (11721975_s_at) / RFU GSTM3 (11746129_a_at) / Fold change /veh GSTM3 (11746129_a_at) / RFU IL23R (11737362_x_at) / Fold change /veh IL23R (11737362_x_at) / RFU TMEM51 (11727254_a_at) / Fold change /veh TMEM51 (11727254_a_at) / RFU PIWIL2 (11732686_x_at) / Fold change /veh PIWIL2 (11732686_x_at) / RFU ORM1 (11744905_x_at) / Fold change /veh ORM1 (11744905_x_at) / RFU CCDC152 (11743942_at) / Fold change /veh CCDC152 (11743942_at) / RFU ECM1 (11717891_a_at) / Fold change /veh ECM1 (11717891_a_at) / RFU IL23R (11748794_a_at) / Fold change /veh IL23R (11748794_a_at) / RFU TNFAIP8L3 (11732012_x_at) / Fold change /veh TNFAIP8L3 (11732012_x_at) / RFU MBOAT4 (11741988_at) / Fold change /veh MBOAT4 (11741988_at) / RFU 11764193_at / Fold change /veh 11764193_at / RFU TMEM53 (11763286_at) / Fold change /veh TMEM53 (11763286_at) / RFU MAGEB2 (11727129_at) / Fold change /veh MAGEB2 (11727129_at) / RFU TMEM200A (11744735_a_at) / Fold change /veh TMEM200A (11744735_a_at) / RFU CCDC152 (11751479_a_at) / Fold change /veh CCDC152 (11751479_a_at) / RFU FAM211A (11726209_a_at) / Fold change /veh FAM211A (11726209_a_at) / RFU RGS16 (11746705_a_at) / Fold change /veh RGS16 (11746705_a_at) / RFU VCAN (11755009_s_at) / Fold change /veh VCAN (11755009_s_at) / RFU RHOB (11743442_s_at) / Fold change /veh RHOB (11743442_s_at) / RFU RGS16 (11720943_a_at) / Fold change /veh RGS16 (11720943_a_at) / RFU RGS16 (11720944_at) / Fold change /veh RGS16 (11720944_at) / RFU, VPS4B / Fold change vs veh, VPS4B / RFU, CREB1 / Fold change vs veh, CREB1 / RFU, DNAJC13 / Fold change vs veh, DNAJC13 / RFU, GNAQ / Fold change vs veh, GNAQ / RFU, CDK5R1 / Fold change vs veh, CDK5R1 / RFU, ZRANB3 / Fold change vs veh, ZRANB3 / RFU, CUL4A / Fold change vs veh, CUL4A / RFU, CCNY / Fold change vs veh, CCNY / RFU, UFL1 / Fold change vs veh, UFL1 / RFU, COG3 / Fold change vs veh, COG3 / RFU, DIAPH2 / Fold change vs veh, DIAPH2 / RFU, SKA2 / Fold change vs veh, SKA2 / RFU, AFF3 / Fold change vs veh, AFF3 / RFU, LMF1 / Fold change vs veh, LMF1 / RFU, IPO11 / Fold change vs veh, IPO11 / RFU, DFFB / Fold change vs veh, DFFB / RFU, FOXP1 / Fold change vs veh, FOXP1 / RFU, CARD8 / Fold change vs veh, CARD8 / RFU, STRN3 / Fold change vs veh, STRN3 / RFU, ADK / Fold change vs veh, ADK / RFU, RASSF2 / Fold change vs veh, RASSF2 / RFU, WIPF1 / Fold change vs veh, WIPF1 / RFU, LARP1B / Fold change vs veh, LARP1B / RFU, RASA1 / Fold change vs veh, RASA1 / RFU, RB1 / Fold change vs veh, RB1 / RFU, PPFIA1 / Fold change vs veh, PPFIA1 / RFU, MAT2A / Fold change vs veh, MAT2A / RFU, CCT5 / Fold change vs veh, CCT5 / RFU, WDR92 / Fold change vs veh, WDR92 / RFU, CUX1 / Fold change vs veh, CUX1 / RFU, TTC7A / Fold change vs veh, TTC7A / RFU, TMEM135 / Fold change vs veh, TMEM135 / RFU, DEPTOR / Fold change vs veh, DEPTOR / RFU, CPM / Fold change vs veh, CPM / RFU, DNAJB6 / Fold change vs veh, DNAJB6 / RFU, CACNA2D3 / Fold change vs veh, CACNA2D3 / RFU, DTX4 / Fold change vs veh, DTX4 / RFU, TFCP2 / Fold change vs veh, TFCP2 / RFU, GMCL1 /// GMCL1P1 / Fold change vs veh, GMCL1 /// GMCL1P1 / RFU, AEBP2 / Fold change vs veh, AEBP2 / RFU, SNHG1 /// SNORD22 /// SNORD25 /// SNORD26 /// SNORD27 /// SNORD28 /// SNORD29 /// SNORD31 / Fold change vs veh, SNHG1 /// SNORD22 /// SNORD25 /// SNORD26 /// SNORD27 /// SNORD28 /// SNORD29 /// SNORD31 / Fold change (Aza/veh), C12orf56 (ProbeSet 11735607_a_at) / Fold change (ACY-1035/veh), C12orf56 (ProbeSet 11735607_a_at) / Fold change (Aza/veh), FGFR1OP (ProbeSet 11751329_s_at) / Fold change (ACY-1035/veh), FGFR1OP (ProbeSet 11751329_s_at) / Fold change (Aza/veh), VPS36 (ProbeSet 11739960_a_at) / Fold change (ACY-1035/veh), VPS36 (ProbeSet 11739960_a_at) / RFU SYPL1 (11715823_x_at) / Fold change /veh SYPL1 (11715823_x_at) / RFU IGFBP7 (11715501_s_at) / Fold change /veh IGFBP7 (11715501_s_at) / RFU REEP3 (11722064_at) / Fold change /veh REEP3 (11722064_at) / RFU IGLL1 (11728026_x_at) / Fold change /veh IGLL1 (11728026_x_at): dose or concentration left out as unconfirmed
Details: ProbeSet 11724526_at; LIST B

Structure (SMILES): Nc1ncn([C@@H]2O[C@H](CO)[C@@H](O)[C@H]2O)c(=O)n1 [azacitidine]
- Fold change vs veh, FAHD1: 0.84
